{
  "source": "patent US20260272865A1",
  "about": "“HYDROXYPHENYL PROPANOATE COMPOUNDS FOR TUMOUR IMMUNOTHERAPY, COMPOSITIONS AND USES THEREOF” (UTI LIMITED PARTNERSHIP, priority 2023, published 2026)",
  "key": {"NF-κB pathway": {"test_system": "NF-κB pathway", "assay": "NF-κB activity reporter assay in THP1-Dual cells", "type": "cell-based, human", "conditions": "for NF-κB pathway activation when treated with LPS: 16 hours, vs vehicle; for NF-κB pathway activation combined with PRR agonists: LPS or other NF-κB pathway inducers", "description": "NF-κB and IRF induction assays were performed using mouse RAW-Dual™ (InvivoGen) and human THP1-Dua™ (InvivoGen) reporter cell lines. The cells were resuspended in freshly prepared test media at a concentration of 1.0×10^6 cells/mL for RAW-Dual™ and 5.0×10^5 cells/mL for THP1-Dual™. 180 μL of cells were seeded per well in a standard 96-well plate and optimized the concentration of several PRR agonists that trigger NF-κB and IRF. To test the metabolite effect on these pathways, 10 μL of the optimized receptor agonist, 10 μL of the 2 mM metabolite solution or vehicle was added to each well, making a final volume of 200 μL. To neutralize IL-1 receptor signalling, anti-IL-1a (clone 7D4, InvivoGen) and anti-IL-1β (clone 4H5, InvivoGen) antibodies were added and IgG1 isotype (clone T8E5, InvivoGen) was used as a control, as per manufacturer's recommendation. NF-κB activity was determined by measuring secreted embryonic alkaline phosphatase (SEAP) levels using QUANTI-Blue™ solution (InvivoGen). After aliquoting 20 μL of cell culture supernatant into 180 μL of QUANTI-Blue™, the conversion of color to blue was monitored and SEAP levels were determined using a SpectraMax i3 from Molecular Devices at 650 nm. To assess IRF induction, secreted lucia luciferase levels were measured in the culture medium using QUANTI-Luc™ solution (InvivoGen). 20 μL of cell culture supernatant was aliquoted into 50 μL of QUANTI-Luc™ solution and the luminescence reading was immediately recorded using the SpectraMax i3."}, "influenza virus": {"test_system": "influenza virus", "conditions": "early study, Science 357, 498-502 (2017); cited from earlier work"}, "IRF pathway": {"test_system": "IRF pathway", "type": "cell-based, human"}, "GSDMD": {"target": "T1, GSDMD (Homo sapiens, UniProt P57764)", "T1 construct": "host or cells: THP1-Dual cells (human monocytic reporter line)", "T1 sequence (P57764 1-484)": "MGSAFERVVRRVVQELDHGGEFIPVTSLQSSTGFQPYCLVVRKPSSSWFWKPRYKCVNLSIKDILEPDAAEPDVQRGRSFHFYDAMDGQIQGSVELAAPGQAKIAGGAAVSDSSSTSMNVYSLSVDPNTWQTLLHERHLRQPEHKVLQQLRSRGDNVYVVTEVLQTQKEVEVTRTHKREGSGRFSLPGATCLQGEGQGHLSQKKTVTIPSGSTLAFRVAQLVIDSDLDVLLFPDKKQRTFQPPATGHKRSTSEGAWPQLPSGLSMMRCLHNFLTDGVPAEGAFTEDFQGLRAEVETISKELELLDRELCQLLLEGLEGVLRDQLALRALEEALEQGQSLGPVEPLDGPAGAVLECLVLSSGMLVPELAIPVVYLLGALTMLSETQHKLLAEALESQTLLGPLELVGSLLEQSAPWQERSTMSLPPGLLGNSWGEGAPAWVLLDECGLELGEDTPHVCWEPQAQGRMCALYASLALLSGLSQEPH", "assay": "Western blot of GSDMD cleavage in THP-1 cells", "type": "cell-based", "description": "Cells were collected and lysates prepared using total lysis buffer (50 mM Tris-HCl, pH 8.0; 150 mM NaCl; 1% Triton X-100; 1% SDS). The supernatant was obtained by centrifuging at 10,000 RPM for 10 minutes at 4° C. using a benchtop PCR centrifuge. Protein quantification was performed using the Bio-Rad DC Protein Assay Kit (Bio-Rad, NC, USA). Proteins were separated using 12% SDS-PAGE gels and transferred to a PVDF membrane using the Bio-Rad Trans-turbo semi-dry transfer apparatus at 25 V/1 A for 1 hour. The membrane was blocked with Tris-buffered-saline-Tween-20™ (TBST) containing 5% skim milk for 30 minutes at room temperature. The membrane was then probed overnight at 4° C. with rabbit monoclonal recombinant anti-GSDMD antibody (ab210070, Abcam), anti-cleaved N-terminal GSDMD antibody (ab215203, Abcam) and mouse anti-actin monoclonal antibody (MAB1501, MilliporeSigma) for human FL-GSDMD, CL-GSDMD and actin. The next day, the membranes were washed with TBST three times and probed with goat anti-rabbit (1706515, Bio-Rad) or goat anti-mouse (1706516, Bio-Rad) horseradish peroxidase-conjugated IgG for 1 hour at room temperature. The secondary antibodies were diluted in TBST containing 5% (w/v) skim milk at 1:5000 and the membranes washed with TBST before detecting the proteins of interest using the Clarity™ Western ECL Substrate (Bio-Rad) on a Chemidoc-IT Imager (UVP, Upland, CA, USA)."}},
  "data": [
    {"smiles": "O=C(O)CCc1ccc(Cl)cc1", "note": "[II-2, 3-(4-chlorophenyl)propionic acid]", "values": [
      {"measurement": "NF-κB pathway activation when treated with LPS", "setting": "NF-κB pathway", "value": "significantly enhanced the activation"}
    ]},
    {"smiles": "O=C(CCc1ccc(O)cc1)ON1C(=O)CCC1=O", "note": "[Compound I-7, 3-(4-hydroxyphenyl)propionic acid N-hydroxysuccinimide ester]", "values": [
      {"measurement": "NF-κB pathway activation when treated with LPS", "setting": "NF-κB pathway", "value": "significantly enhanced the activation"}
    ]},
    {"smiles": "O=C(O)CCCCc1ccc(O)cc1", "note": "[III-2, 5-(4-hydroxyphenyl)pentatonic acid]", "values": [
      {"measurement": "NF-κB pathway activation when treated with LPS", "setting": "NF-κB pathway", "value": "significantly enhanced the activation"}
    ]},
    {"smiles": "O=C(O)CCc1ccc(O)cc1", "note": "[Compound I-3, 3-(4-hydroxyphenyl)propanoic acid]", "values": [
      {"measurement": "NF-κB pathway activation combined with PRR agonists", "setting": "NF-κB pathway", "value": "potentiate"},
      {"measurement": "NF-κB pathway activation when treated with LPS", "setting": "NF-κB pathway", "value": "potentiates"},
      {"measurement": "influenza virus pathology", "setting": "influenza virus", "value": "protects from influenza virus pathology"},
      {"measurement": "type 1 interferon signalling", "setting": "influenza virus", "value": "primes the amplification loop of type 1 interferon signalling"},
      {"measurement": "IRF pathway activation combined with PRR agonists", "setting": "IRF pathway", "value": "potentiate"},
      {"measurement": "GSDMD cleavage in the presence of LPS or LPS+NG stimulation", "setting": "GSDMD", "value": "facilitating gasdermin D cleavage"}
    ]},
    {"smiles": "Cc1ccc(CCC(=O)O)cc1", "note": "[II-4, 3-(4-methylphenyl)propionic acid]", "values": [
      {"measurement": "NF-κB pathway activation when treated with LPS", "setting": "NF-κB pathway", "value": "significantly enhanced the activation"}
    ]},
    {"smiles": "Nc1ccc(CCC(=O)O)cc1", "note": "[II-3, 3-(4-aminophenyl)propionic acid]", "values": [
      {"measurement": "NF-κB pathway activation when treated with LPS", "setting": "NF-κB pathway", "value": "significantly enhanced the activation"}
    ]},
    {"smiles": "COC(=O)CCc1ccc(O)cc1", "note": "[Compound I-5, methyl 3-(4-hydroxyphenyl) propionate]", "values": [
      {"measurement": "NF-κB pathway activation when treated with LPS", "setting": "NF-κB pathway", "value": "significantly enhanced the activation"}
    ]},
    {"smiles": "O=C(O)CCCc1ccc(O)cc1", "note": "[III-1, 4-(4-hydroxyphenyl)butanoic acid]", "values": [
      {"measurement": "NF-κB pathway activation when treated with LPS", "setting": "NF-κB pathway", "value": "significantly enhanced the activation"}
    ]},
    {"smiles": "O=C(O)CCC(=O)c1ccc(O)cc1", "note": "[IV]", "values": [
      {"measurement": "NF-κB pathway activation when treated with LPS", "setting": "NF-κB pathway", "value": "significantly enhanced the activation"}
    ]},
    {"smiles": "CCOC(=O)CCc1ccc(O)cc1", "note": "[Compound I-6, ethyl 3-(4-hydroxyphenyl)propionate]", "values": [
      {"measurement": "NF-κB pathway activation when treated with LPS", "setting": "NF-κB pathway", "value": "significantly enhanced the activation"}
    ]},
    {"smiles": "NC(=O)CC[C@H](N)C(=O)O", "note": "[L-gln, L-glutamine, reference compound]", "values": [
      {"measurement": "NF-κB pathway activation when treated with LPS", "setting": "NF-κB pathway", "value": "had no effect"},
      {"measurement": "IRF pathway activation combined with PRR agonists", "setting": "IRF pathway", "value": "had no effect"}
    ]},
    {"smiles": "O=C(O)CCc1cccc(O)c1", "note": "[Compound I-2, 3-(3-hydroxyphenyl)propanoic acid]", "values": [
      {"measurement": "NF-κB pathway activation combined with PRR agonists", "setting": "NF-κB pathway", "value": "potentiate"},
      {"measurement": "NF-κB pathway activation when treated with LPS", "setting": "NF-κB pathway", "value": "potentiates"},
      {"measurement": "IRF pathway activation combined with PRR agonists", "setting": "IRF pathway", "value": "potentiate"},
      {"measurement": "GSDMD cleavage in the presence of LPS or LPS+NG stimulation", "setting": "GSDMD", "value": "facilitating gasdermin D cleavage"}
    ]},
    {"smiles": "O=C(O)CCc1ccc(F)cc1", "note": "[II-1, 3-(4-fluorophenyl)propionic acid]", "values": [
      {"measurement": "NF-κB pathway activation when treated with LPS", "setting": "NF-κB pathway", "value": "significantly enhanced the activation"}
    ]},
    {"smiles": "O=C([O-])CCc1ccc(O)cc1.[Na+]", "note": "[Compound I-4, sodium 3-(4-hydroxyphenyl)propionic acid]", "values": [
      {"measurement": "NF-κB pathway activation when treated with LPS", "setting": "NF-κB pathway", "value": "significantly enhanced the activation"}
    ]}
  ]
}
